What all share (assay type): cell-based
The target of assay [1] is human TLR9 (Homo sapiens (Human), UniProt Q9NR96). The assay can be described thus: TLR9 inhibition reporter assay (HEK-Blue, SEAP). Particulars: HEK-Blue cells overexpressing human TLR9, ODN2006 5 nM stimulation. The gist of the method:
(§1)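 HEK-Blue cells overexpressing the receptor carry a SEAP reporter under IFN-β minimal promoter with NF-κB/AP-1 sites. Compounds (0.05 nM–50 μM final) were preincubated 30 min at room temperature, then cells were stimulated with gardiquimod 7.5 μM (TLR7), R848 15.9 μM (TLR8) or ODN2006 5 nM (TLR9) for 22 h at 37 °C.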

Assay [2] deals with human TLR7 (Homo sapiens (Human), UniProt Q9NYK1). The assay can be described thus: TLR7 inhibition reporter assay (HEK-Blue, SEAP). Particulars: HEK-Blue cells overexpressing human TLR7, gardiquimod 7.5 μM stimulation. The method, boiled down: as §1
(In general: A reporter such as luciferase makes a cellular process visible.)

Assay [3] addresses human TLR8 (Homo sapiens (Human), UniProt Q9NR97). As to the kind of experiment: TLR8 inhibition reporter assay (HEK-Blue, SEAP). The conditions noted are these: HEK-Blue cells overexpressing human TLR8, R848 15.9 μM stimulation. The method, boiled down: as §1

Where only a bound is given, the exact number is not on record here.

human TLR8, sequence (Q9NR97 27-1041): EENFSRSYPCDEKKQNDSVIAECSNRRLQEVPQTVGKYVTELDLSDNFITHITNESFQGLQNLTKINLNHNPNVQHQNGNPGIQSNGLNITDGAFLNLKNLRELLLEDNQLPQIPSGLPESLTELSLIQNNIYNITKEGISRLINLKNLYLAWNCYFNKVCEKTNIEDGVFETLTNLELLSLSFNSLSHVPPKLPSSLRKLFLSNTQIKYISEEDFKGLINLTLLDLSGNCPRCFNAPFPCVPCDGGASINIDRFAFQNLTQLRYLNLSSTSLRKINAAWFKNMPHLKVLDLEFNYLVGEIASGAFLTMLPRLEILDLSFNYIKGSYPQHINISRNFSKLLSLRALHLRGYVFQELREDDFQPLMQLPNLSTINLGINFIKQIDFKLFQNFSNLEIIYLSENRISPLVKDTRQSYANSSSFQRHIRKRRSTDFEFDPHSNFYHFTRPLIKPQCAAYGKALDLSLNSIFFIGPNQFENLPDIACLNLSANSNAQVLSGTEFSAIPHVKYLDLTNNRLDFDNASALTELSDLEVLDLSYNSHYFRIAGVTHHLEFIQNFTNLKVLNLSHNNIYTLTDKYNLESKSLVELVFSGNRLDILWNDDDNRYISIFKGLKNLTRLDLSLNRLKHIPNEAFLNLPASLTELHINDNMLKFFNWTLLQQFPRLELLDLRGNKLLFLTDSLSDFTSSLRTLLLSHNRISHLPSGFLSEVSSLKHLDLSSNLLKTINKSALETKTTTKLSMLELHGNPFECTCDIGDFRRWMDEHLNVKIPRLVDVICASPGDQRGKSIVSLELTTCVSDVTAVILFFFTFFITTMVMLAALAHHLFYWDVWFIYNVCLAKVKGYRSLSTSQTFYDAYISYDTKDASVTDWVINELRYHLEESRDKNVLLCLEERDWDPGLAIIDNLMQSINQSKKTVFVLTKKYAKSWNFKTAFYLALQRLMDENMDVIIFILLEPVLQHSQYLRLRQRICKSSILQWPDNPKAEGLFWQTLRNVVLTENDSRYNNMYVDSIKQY
human TLR7, sequence (Q9NYK1 27-1049): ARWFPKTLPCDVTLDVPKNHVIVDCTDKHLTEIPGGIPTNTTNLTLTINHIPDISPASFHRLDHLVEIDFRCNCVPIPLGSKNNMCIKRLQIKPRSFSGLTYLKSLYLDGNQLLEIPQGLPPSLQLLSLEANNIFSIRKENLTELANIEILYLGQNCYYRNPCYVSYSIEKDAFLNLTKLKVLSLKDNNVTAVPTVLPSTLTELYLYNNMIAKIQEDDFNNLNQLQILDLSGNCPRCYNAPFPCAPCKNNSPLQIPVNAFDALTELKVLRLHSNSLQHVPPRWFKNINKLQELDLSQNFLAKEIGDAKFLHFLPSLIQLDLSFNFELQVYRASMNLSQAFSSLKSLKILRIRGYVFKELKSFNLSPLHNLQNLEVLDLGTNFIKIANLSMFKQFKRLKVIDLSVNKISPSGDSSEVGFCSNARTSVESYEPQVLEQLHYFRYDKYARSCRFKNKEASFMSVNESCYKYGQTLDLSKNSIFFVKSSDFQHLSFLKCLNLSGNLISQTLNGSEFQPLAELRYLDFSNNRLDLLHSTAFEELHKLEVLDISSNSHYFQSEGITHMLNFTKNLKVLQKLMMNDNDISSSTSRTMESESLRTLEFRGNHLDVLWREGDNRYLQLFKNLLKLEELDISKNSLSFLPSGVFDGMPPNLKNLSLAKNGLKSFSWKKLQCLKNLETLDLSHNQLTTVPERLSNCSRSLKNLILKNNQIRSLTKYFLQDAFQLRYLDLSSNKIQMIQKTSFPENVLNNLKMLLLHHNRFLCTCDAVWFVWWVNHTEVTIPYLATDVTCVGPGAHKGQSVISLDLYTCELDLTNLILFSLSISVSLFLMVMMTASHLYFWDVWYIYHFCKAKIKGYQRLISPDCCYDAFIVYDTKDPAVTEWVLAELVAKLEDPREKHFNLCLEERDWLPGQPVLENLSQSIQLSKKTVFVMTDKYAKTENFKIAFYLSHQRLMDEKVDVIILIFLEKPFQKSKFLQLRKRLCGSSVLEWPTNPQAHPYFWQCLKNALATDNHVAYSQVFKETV
human TLR9, sequence (Q9NR96 26-1032): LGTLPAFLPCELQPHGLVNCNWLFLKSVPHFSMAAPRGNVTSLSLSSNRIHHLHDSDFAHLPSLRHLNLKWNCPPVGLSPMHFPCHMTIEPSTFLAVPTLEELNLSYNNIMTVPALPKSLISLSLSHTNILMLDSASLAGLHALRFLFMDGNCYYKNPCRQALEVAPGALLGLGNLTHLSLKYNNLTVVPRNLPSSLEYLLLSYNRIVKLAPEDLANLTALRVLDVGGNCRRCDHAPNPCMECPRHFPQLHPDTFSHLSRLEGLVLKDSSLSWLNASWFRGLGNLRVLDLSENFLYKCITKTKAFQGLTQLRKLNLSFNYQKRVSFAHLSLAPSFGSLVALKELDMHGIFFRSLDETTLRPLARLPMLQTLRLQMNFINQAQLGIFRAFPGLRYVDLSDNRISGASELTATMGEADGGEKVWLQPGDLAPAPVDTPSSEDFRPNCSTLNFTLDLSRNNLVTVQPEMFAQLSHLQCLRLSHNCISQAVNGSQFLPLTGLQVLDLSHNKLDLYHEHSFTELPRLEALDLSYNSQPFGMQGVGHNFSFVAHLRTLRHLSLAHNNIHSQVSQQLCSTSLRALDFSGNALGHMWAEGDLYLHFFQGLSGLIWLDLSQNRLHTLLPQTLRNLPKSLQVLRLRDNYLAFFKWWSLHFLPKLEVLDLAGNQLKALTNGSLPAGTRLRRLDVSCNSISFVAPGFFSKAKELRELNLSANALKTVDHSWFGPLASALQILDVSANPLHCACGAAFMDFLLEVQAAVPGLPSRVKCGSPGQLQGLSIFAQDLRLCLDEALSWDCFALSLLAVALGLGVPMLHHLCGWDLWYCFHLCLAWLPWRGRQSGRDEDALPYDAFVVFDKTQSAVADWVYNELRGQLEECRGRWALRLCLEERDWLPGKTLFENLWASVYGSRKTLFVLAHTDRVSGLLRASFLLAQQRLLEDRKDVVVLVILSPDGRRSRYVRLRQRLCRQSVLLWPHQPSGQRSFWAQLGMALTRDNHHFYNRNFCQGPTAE

With `Cc1cc(-c2[nH]c3ccc(-c4ccc(NC(=O)CN(C)C)nc4)cc3c2C(C)C)ccn1` [Example 198, 2-(dimethylamino)-N-(5-(3-isopropyl-2-(2-methylpyridin-4-yl)-1H-indol-5-yl)pyridin-2-yl)acetamide], the IC50 in assay [1] was 654 nM; in assay [2] it was 26 nM; in assay [3], 3 nM.
As for `Cc1cc(-c2[nH]c3ccc(-c4cnc(C5CCNCC5)s4)cc3c2C(C)C)ccn1` [Example 199, 5-(3-isopropyl-2-(2-methylpyridin-4-yl)-1H-indol-5-yl)-2-(piperidin-4-yl)thiazole], the results for the IC50 in assay [1], in assay [2] and in assay [3] were 1100 nM, 37 nM and 4.9 nM, respectively.
As to `Cc1cc(-c2[nH]c3ccc(-c4ccnc(N)c4)cc3c2C(C)C)ccn1` [Example 200, 4-(3-isopropyl-2-(2-methylpyridin-4-yl)-1H-indol-5-yl)pyridin-2-amine], the IC50 in assay [1] was found to be 727 nM; in assay [2] it was 9.6 nM; in assay [3], 9.7 nM.
On to `Cc1cc(-c2[nH]c3ccc(-c4sc(C5CCNCC5)nc4C)cc3c2C(C)C)ccn1` [Example 201, 5-(3-isopropyl-2-(2-methylpyridin-4-yl)-1H-indol-5-yl)-4-methyl-2-(piperidin-4-yl)thiazole], for which the IC50 in assay [1] was found to be 1840 nM; in assay [2], 10 nM; in assay [3] it was 2.9 nM.
In the same order, the values of `CNCCNc1ccc(-c2ccc3[nH]c(-c4ccnc(C)c4)c(C(C)C)c3c2)cn1` [Example 202, N1-(5-(3-isopropyl-2-(2-methylpyridin-4-yl)-1H-indol-5-yl)pyridin-2-yl)-N2-methylethane-1,2-diamine] are 495 nM, 11 nM and 1.3 nM.
In the same order, the values of `CC(C)c1c(-c2ccnc3[nH]ncc23)[nH]c2ccc(-c3nnc(C(=O)NC4CCN(C(C)C)CC4)s3)cc12` [Example 203, 5-(3-isopropyl-2-(1H-pyrazolo[3,4-b]pyridin-4-yl)-1H-indol-5-yl)-N-(1-isopropylpiperidin-4-yl)-1,3,4-thiadiazole-2-carboxamide] are 926 nM, 56 nM and 7.8 nM.
In the same order, the values of `Cc1cc(-c2[nH]c3ccc(-c4nnc(C5CCCN(C(C)C)C5)[nH]4)cc3c2C(C)C)ccn1` (stereo not drawn) [Example 204, 3-isopropyl-5-(5-(1-isopropylpiperidin-3-yl)-4H-1,2,4-triazol-3-yl)-2-(2-methylpyridin-4-yl)-1H-indole] are 218 nM, 67 nM and 5.7 nM.
As to `Cc1cc(-c2[nH]c3ccc(-c4nnc(C5CCCN(C(C)C)C5)[nH]4)cc3c2C(C)C)ccn1` (stereo not drawn) [Example 205, 3-isopropyl-5-(5-(1-isopropylpiperidin-3-yl)-4H-1,2,4-triazol-3-yl)-2-(2-methylpyridin-4-yl)-1H-indole], the IC50 in assay [1] came to 243 nM; in assay [2], 32 nM; in assay [3], 5.5 nM.
`CC(C)c1c(-c2ccnc3[nH]ncc23)[nH]c2ccc(-c3nc4n(n3)CCNC4)cc12` [Example 206, 2-(3-isopropyl-2-(1H-pyrazolo[3,4-b]pyridin-4-yl)-1H-indol-5-yl)-5,6,7,8-tetrahydro-[1,2,4]triazolo[1,5-a]pyrazine]: the IC50 is over 50000 nM in assay [1], 4450 nM in assay [2] and 11 nM in assay [3].
In the same order, the values of `Cc1cc(-c2[nH]c3ccc(-c4ccc(NC(=O)[C@H]5CCNC5)nc4)cc3c2C(C)C)ccn1` [Example 207, (S)—N-(5-(3-isopropyl-2-(2-methylpyridin-4-yl)-1H-indol-5-yl)pyridin-2-yl)pyrrolidine-3-carboxamide] are 1650 nM, 83 nM and 14 nM.
In the same order, the values of `CC(C)c1c(-c2ccnc3[nH]ncc23)[nH]c2ccc(-c3cc(N4CCC(N)CC4)ncn3)cc12` [Example 208, 1-(6-(3-isopropyl-2-(1H-pyrazolo[3,4-b]pyridin-4-yl)-1H-indol-5-yl)pyrimidin-4-yl)piperidin-4-amine] are 1220 nM, 139 nM and 9.3 nM.
For `Cc1cc(-c2[nH]c3ccc(-c4ccc(NC(=O)[C@@H]5CCNC5)nc4)cc3c2C(C)C)ccn1` [Example 209, (R)—N-(5-(3-isopropyl-2-(2-methylpyridin-4-yl)-1H-indol-5-yl)pyridin-2-yl)pyrrolidine-3-carboxamide], in that order: 828 nM, 169 nM and 67 nM.
Take `CC(C)c1c(-c2ccnc3[nH]ncc23)[nH]c2ccc(-c3nc4n(n3)CCN(C3CCN(C(C)C)CC3)C4)cc12` [Example 211, 2-(3-isopropyl-2-(1H-pyrazolo[3,4-b]pyridin-4-yl)-1H-indol-5-yl)-7-(1-isopropylpiperidin-4-yl)-5,6,7,8-tetrahydro-[1,2,4]triazolo[1,5-a]pyrazine]: the values for the IC50 in assay [1], in assay [2] and in assay [3] were 1830 nM, 216 nM and 9.9 nM, respectively.
In the case of `Cc1oc(-c2ccc3[nH]c(-c4ccnc5[nH]ncc45)c(C(C)C)c3c2)nc1C(=O)NCC1CCNC1` (stereo not drawn) [Example 212, 2-(3-isopropyl-2-(1H-pyrazolo[3,4-b]pyridin-4-yl)-1H-indol-5-yl)-5-methyl-N-(pyrrolidin-3-ylmethyl)oxazole-4-carboxamide], the IC50 came out at 12100 nM in assay [1], 1060 nM in assay [2] and 109 nM in assay [3].
Regarding `Cc1cc(-c2[nH]c3ccc(-c4nnc(C5CN6CCC5CC6)o4)cc3c2C(C)C)ccn1` (stereo not drawn) [Example 213, 2-(3-isopropyl-2-(2-methylpyridin-4-yl)-1H-indol-5-yl)-5-(quinuclidin-3-yl)-1,3,4-oxadiazole], the IC50 is 655 nM in assay [1], 47 nM in assay [2] and 3.3 nM in assay [3].
For `CC(C)CN1CCC(NC(=O)c2nnc(-c3ccc4[nH]c(-c5ccnc6[nH]ncc56)c(C(C)C)c4c3)o2)CC1` [Example 214, N-(1-isobutylpiperidin-4-yl)-5-(3-isopropyl-2-(1H-pyrazolo[3,4-b]pyridin-4-yl)-1H-indol-5-yl)-1,3,4-oxadiazole-2-carboxamide], in that order: 686 nM, 203 nM and 4.4 nM.
In the same order, the values of `CNC(=O)c1c(-c2ccc3[nH]c(-c4ccnc(C)c4)c(C(C)C)c3c2)nn2c1CNCC2` [Example 215, 2-(3-isopropyl-2-(2-methylpyridin-4-yl)-1H-indol-5-yl)-N-methyl-4,5,6,7-tetrahydropyrazolo[1,5-a]pyrazine-3-carboxamide] are 20800 nM, 9.8 nM and 14 nM.
As for `Cc1cc(-c2[nH]c3ccc(-c4nn5c(c4C(N)=O)CNCC5)cc3c2C(C)C)ccn1` [Example 216, 2-(3-isopropyl-2-(2-methylpyridin-4-yl)-1H-indol-5-yl)-4,5,6,7-tetrahydropyrazolo[1,5-a]pyrazine-3-carboxamide], the figures for the IC50 in assay [1], in assay [2] and in assay [3] were 35000 nM, 25 nM and 6.9 nM, respectively.
On to `CNCCN1CCn2nc(-c3ccc4[nH]c(-c5ccnc6[nH]ncc56)c(C(C)C)c4c3)nc2C1` [Example 217, 2-(2-(3-isopropyl-2-(1H-pyrazolo[3,4-b]pyridin-4-yl)-1H-indol-5-yl)-5,6-dihydro-[1,2,4]triazolo[1,5-a]pyrazin-7(8H)-yl)-N-methylethan-1-amine], for which the IC50 in assay [1] is over 50000 nM; in assay [2], 417 nM; in assay [3], 41 nM.
In the same order, the values of `CNCCN1CCn2nc(-c3ccc4[nH]c(-c5ccnc(C)c5)c(C(C)C)c4c3)c(C(N)=O)c2C1` [Example 218, 2-(3-isopropyl-2-(2-methylpyridin-4-yl)-1H-indol-5-yl)-5-(2-(methylamino)ethyl)-4,5,6,7-tetrahydropyrazolo[1,5-a]pyrazine-3-carboxamide] are 1940 nM, 496 nM and 93 nM.
Consider `CNCCN1CCn2nc(-c3ccc4[nH]c(-c5ccnc(C)c5)c(C(C)C)c4c3)c(C(=O)NC)c2C1` [Example 219, 2-(3-isopropyl-2-(2-methylpyridin-4-yl)-1H-indol-5-yl)-N-methyl-5-(2-(methylamino)ethyl)-4,5,6,7-tetrahydropyrazolo[1,5-a]pyrazine-3-carboxamide], for which the IC50 is 2600 nM in assay [1], 163 nM in assay [2] and 147 nM in assay [3].
Regarding `CC(C)c1c(-c2ccnc3[nH]ncc23)[nH]c2ccc(-c3nnc(C4CN5CCC4CC5)o3)cc12` (stereo not drawn) [Example 220, 2-(3-isopropyl-2-(1H-pyrazolo[3,4-b]pyridin-4-yl)-1H-indol-5-yl)-5-(quinuclidin-3-yl)-1,3,4-oxadiazole], the IC50 was 238 nM in assay [1], 76 nM in assay [2] and 12 nM in assay [3].
In the same order, the values of `Cc1cc(-c2[nH]c3ccc(-c4nnc(C(=O)NC5CCN(C(C)C)CC5)o4)cc3c2C(C)C)cc(C)n1` [Example 221, 5-(2-(2,6-dimethylpyridin-4-yl)-3-isopropyl-1H-indol-5-yl)-N-(1-isopropylpiperidin-4-yl)-1,3,4-oxadiazole-2-carboxamide] are 515 nM, 15 nM and 2.5 nM.
In the same order, the values of `Cc1cc(-c2[nH]c3ccc(-c4nnc(C5CN6CCC5CC6)o4)cc3c2C(C)C)ccn1` (stereo not drawn) [Example 222, 2-(3-isopropyl-2-(2-methylpyridin-4-yl)-1H-indol-5-yl)-5-(quinuclidin-3-yl)-1,3,4-oxadiazole] are 1240 nM, 34 nM and 3.2 nM.

The term IC50 denotes the concentration that inhibits the measured activity by half. Read a high IC50 as lower potency.

The record behind these values is patent US11420958B2, “Aryl and heteroaryl substituted indole compounds” (BRISTOL-MYERS SQUIBB COMPANY, priority 2017, dated 2022).
